The structures appear in SMILES notation.

In this test the target is human NAMPT (Homo sapiens (Human), UniProt P43490). Put plainly: NMN fluorescence biochemical assay (human recombinant NAMPT enzyme assay). The method, boiled down:
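NMN formed was detected by fluorescence (Ex/Em 355/460 nm) after acetophenone, KOH and formic acid derivatization. The cell-free reaction ran 60 min at ambient temperature with 6 nM human NAMPT, 150 μM nicotinamide, 20 μM PRPP, 2.5 mM ATP, pH 7.2 HEPES, and compound dose responses.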

Sequence of human NAMPT (P43490 whole entry): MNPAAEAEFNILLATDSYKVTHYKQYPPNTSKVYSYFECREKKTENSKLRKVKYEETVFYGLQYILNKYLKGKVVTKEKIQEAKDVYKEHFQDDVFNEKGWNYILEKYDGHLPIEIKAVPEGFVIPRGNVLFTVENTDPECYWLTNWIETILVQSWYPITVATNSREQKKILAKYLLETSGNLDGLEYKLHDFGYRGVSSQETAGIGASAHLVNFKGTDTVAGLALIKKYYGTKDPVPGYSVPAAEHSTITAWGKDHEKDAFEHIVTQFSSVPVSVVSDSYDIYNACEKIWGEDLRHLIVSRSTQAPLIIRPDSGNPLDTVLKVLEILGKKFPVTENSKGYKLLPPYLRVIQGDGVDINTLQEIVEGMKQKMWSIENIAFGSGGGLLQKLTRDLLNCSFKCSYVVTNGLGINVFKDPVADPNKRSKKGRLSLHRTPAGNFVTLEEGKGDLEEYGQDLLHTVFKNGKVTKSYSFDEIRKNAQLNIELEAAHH

Regarding `O=C(Nc1ccc(CN2CCC3(CC3)C2=O)cc1)OCc1ccc(Cl)cc1` [Compound 84, (4-chlorophenyl)methyl N-[4-({4-oxo-5-azaspiro[2.4]heptan-5-yl}methyl)phenyl]carbamate], the “AC1.4 Human” value is 0.66 µM and the EC50 is 3.12 µM.

Take `CS(=O)(=O)N1CCC2(CC(Cc3ccc(NC(=O)OCc4cnco4)cc3F)C2)C1` (stereo not shown) [Compound 370, oxazol-5-ylmethyl (3-fluoro-4-((6-(methylsulfonyl)-6-azaspiro[3.4]octan-2-yl)methyl)phenyl)carbamate]: the “AC1.4 Human” value was 0.13 µM and the EC50 is 5.8 µM.

Consider `CN(C)C(=O)N1C2CCC1CC(Cc1ccc(NC(=O)OCc3cnco3)cc1)C2` (stereo not shown) [Compound 408, oxazol-5-ylmethyl (4-((8-(dimethylcarbamoyl)-8-azabicyclo[3.2.1]octan-3-yl)methyl)phenyl)carbamate], for which the “AC1.4 Human” value is 0.05 µM and the EC50 is 3.44 µM.

As to `CN1CC(=O)NC[C@@H]1c1ccc(NC(=O)OCc2ccc(F)cc2)cc1` [Compound 278, 4-fluorobenzyl (S)-(4-(1-methyl-5-oxopiperazin-2-yl)phenyl)carbamate], the “AC1.4 Human” value turned out to be 3.40 µM and the EC50 was 17.4 µM.

In the case of `CS(=O)(=O)N1CCC(Cc2ccc(NC(=O)OCc3cnco3)cc2)CC12CC2` (stereo not shown) [Compound 419, oxazol-5-ylmethyl (4-((4-(methylsulfonyl)-4-azaspiro[2.5]octan-7-yl)methyl)phenyl)carbamate], the “AC1.4 Human” value worked out at 0.32 µM and the concentration for a half-maximal effect (EC50) stood at 12.7 µM.

On to `COC1CN(C(=O)N[C@@H](C)c2ccc(NC(=O)OCc3ccc(Cl)cc3)cc2)C1` [Compound 170, (4-chlorophenyl)methyl N-{4-[(1S)-1-(3-methoxyazetidine-1-carbonylamino)ethyl]phenyl}carbamate], for which the “AC1.4 Human” value is 1.41 µM and the EC50 was found to be 9.33 µM.

For the molecule `O=C(Nc1ccc(CC2CCN(C3COC3)C3(CC3)C2)cc1)OCc1cnco1` (stereo not shown) [Compound 441, oxazol-5-ylmethyl (4-((4-(oxetan-3-yl)-4-azaspiro[2.5]octan-7-yl)methyl)phenyl)carbamate], the “AC1.4 Human” value was 0.17 µM and the EC50 amounted to 10.7 µM.

`CN(Cc1ccc(NC(=O)OCc2ccc(Cl)cc2)cc1)C(=O)c1cc[nH]n1` [Compound 49, (4-chlorophenyl)methyl N-{4-[(N-methyl-1-1H-pyrazol-3-ylformamido)methyl]phenyl}carbamate]: the “AC1.4 Human” value came out at 0.50 µM and the half-maximal effective concentration (EC50) was 2.02 µM.

As to `CCS(=O)(=O)N1CCC(c2ccc(NC(=O)OCc3cnco3)cc2)CC1` [Compound 427, oxazol-5-ylmethyl (4-(1-(ethylsulfonyl)piperidin-4-yl)phenyl)carbamate], the “AC1.4 Human” value is 0.16 µM and the EC50 is 2.64 µM.

As to `CO[C@H]1CC[C@H](NC(=O)Cc2ccc(NC(=O)OCc3ccc(Cl)cc3)cc2)CC1` [Compound 64, (4-chlorophenyl)methyl N-[4-({[(1R,4R)-4-methoxycyclohexyl]carbamoyl}methyl)phenyl]carbamate], the “AC1.4 Human” value was determined as 0.58 µM and the EC50 was 4.22 µM.

`Cc1ccc(C(=O)NCc2ccc(NC(=O)OCc3ccc(C(F)F)cc3)cc2)cn1` [Compound 133, (4-(difluoro-13-methyl)phenyl)methyl (4-((6-methylnicotinamido)methyl)phenyl)carbamate]: the “AC1.4 Human” value stood at 1.07 µM and the EC50 was 8.6 µM.

As for `O=C(Nc1ccc(CNC(=O)c2cccnn2)cc1)OCc1ccc(Cl)cc1` [Compound 248, (4-chlorophenyl)methyl N-{4-[(pyridazin-3-ylformamido)methyl]phenyl}carbamate], the “AC1.4 Human” value worked out at 2.51 µM and the EC50 worked out at 2.4 µM.

In the case of `Cc1nn(C)c(C(=O)NCc2ccc(NC(=O)OCc3ccc(Cl)cc3)cc2)c1F` [Compound 203, (4-chlorophenyl)methyl N-(4-{[(4-fluoro-2,5-dimethylpyrazol-3-yl)formamido]methyl}phenyl)carbamate], the “AC1.4 Human” value was 1.82 µM and the EC50 was found to be 7.14 µM.

As for `O=C(Nc1ccc(Cc2ccncc2)cc1)OCc1ccc(Cl)cc1` [Compound 216, 4-chlorobenzyl (4-(pyridin-4-ylmethyl)phenyl)carbamate], the “AC1.4 Human” value turned out to be 1.98 µM and the EC50 was 5.81 µM.

Consider `CS(=O)(=O)N1CC2(CC(Cc3ccc(NC(=O)OCc4cnco4)cc3F)C2)C1` [Compound 404, oxazol-5-ylmethyl (3-fluoro-4-((2-(methylsulfonyl)-2-azaspiro[3.3]heptan-6-yl)methyl)phenyl)carbamate], for which the “AC1.4 Human” value came out at 0.10 µM and the EC50 was 14.3 µM.

`CC1CCN(C(=O)Cc2ccc(NC(=O)OCc3ccc(Cl)cc3)cc2)CC1` [Compound 240, (4-chlorophenyl)methyl N-{4-[2-(4-methylpiperidin-1-yl)-2-oxoethyl]phenyl}carbamate]: the “AC1.4 Human” value was 2.33 µM and the EC50 turned out to be 2.73 µM.

Regarding `CN(C)C(=O)N1CCC[C@@H](c2ccc(NC(=O)OCc3cnco3)cc2)C1` [Compound 385, oxazol-5-ylmethyl (S)-(4-(1-(dimethylcarbamoyl)piperidin-3-yl)phenyl)carbamate], the “AC1.4 Human” value was 1.69 µM and the EC50 is 20.8 µM.

On to `COc1cnn(C)c1C(=O)N[C@@H](C)c1ccc(NC(=O)OCc2ccc(Cl)cc2)cc1` [Compound 92, (4-chlorophenyl)methyl N-{4-[(1S)-1-[(4-methoxy-2-methylpyrazol-3-yl)formamido]ethyl]phenyl}carbamate], for which the “AC1.4 Human” value was found to be 0.75 µM and the EC50 amounted to 3.22 µM.

Take `Cc1noc(C(=O)NCc2ccc(NC(=O)OCc3ccc(Cl)cc3)cc2)c1C` [Compound 140, (4-chlorophenyl)methyl N-(4-{[(3,4-dimethyl-1,2-oxazol-5-yl)formamido]methyl}phenyl)carbamate]: the “AC1.4 Human” value was found to be 1.15 µM and the EC50 came out at 4.51 µM.

For `O=C(Nc1ccc(CC2CCN(C(=O)N3CCCC3)CC2)cc1)OCc1cnco1` [Compound 462, oxazol-5-ylmethyl (4-((1-(pyrrolidine-1-carbonyl)piperidin-4-yl)methyl)phenyl)carbamate], the “AC1.4 Human” value was 0.18 µM and the EC50 worked out at 13.3 µM.

Take `C[C@H](NC(=O)N1CCCC1)c1ccc(NC(=O)OCc2ccc(Cl)cc2)cc1` [Compound 103, 4-chlorobenzyl (S)-(4-(1-(pyrrolidine-1-carboxamido)ethyl)phenyl)carbamate]: the “AC1.4 Human” value is 0.83 µM and the EC50 was 4.31 µM.

Regarding `Cc1ccc(C(=O)NCc2ccc(NC(=O)OCc3cncs3)cc2)cn1` [Compound 66, thiazol-5-ylmethyl (4-((6-methylnicotinamido)methyl)phenyl)carbamate], the “AC1.4 Human” value is 0.59 µM and the EC50 was 5.12 µM.

As for `CN([C@@H]1CCOC1)S(=O)(=O)c1ccc(NC(=O)OCc2ccc(Cl)cc2)cc1` [Compound 337, 4-chlorobenzyl (R)-(4-(N-methyl-N-(tetrahydrofuran-3-yl)sulfamoyl)phenyl)carbamate], the “AC1.4 Human” value stood at 10.15 µM and the half-maximal effective concentration (EC50) turned out to be 26.4 µM.

With `O=C(Nc1ccc(C2CCN(C(=O)N3CCC3)CC2)cc1)OCc1cnco1` [Compound 429, oxazol-5-ylmethyl (4-(1-(azetidine-1-carbonyl)piperidin-4-yl)phenyl)carbamate], the “AC1.4 Human” value is 0.19 µM and the EC50 was 41.6 µM.

Turning to `Cc1ncoc1C(=O)NCc1ccc(NC(=O)OCc2ccc(Cl)cc2)cc1` [Compound 209, (4-chlorophenyl)methyl N-(4-{[(4-methyl-1,3-oxazol-5-yl)formamido]methyl}phenyl)carbamate], the “AC1.4 Human” value turned out to be 1.88 µM and the EC50 turned out to be 21.6 µM.

Take `Cn1cc(CC(=O)NCc2ccc(NC(=O)OCc3ccc(Cl)cc3)cc2)cn1` [Compound 315, (4-chlorophenyl)methyl N-(4-{[2-(1-methylpyrazol-4-yl)acetamido]methyl}phenyl)carbamate]: the “AC1.4 Human” value was determined as 5.91 µM and the EC50 was 7.32 µM.

`CC(C)(O)CN1CCN(Cc2ccc(NC(=O)OCc3ccc(Cl)cc3)cc2)CC1` [Compound 177, 4-chlorobenzyl (4-((4-(2-hydroxy-2-methylpropyl)piperazin-1-yl)methyl)phenyl)carbamate]: the “AC1.4 Human” value amounted to 1.49 µM and the 50% effective concentration (EC50) came out at 38.3 µM.

Take `COc1ccc(COC(=O)Nc2ccc(Cc3ccncc3)cc2)cc1` [Compound 262, 4-methoxybenzyl (4-(pyridin-4-ylmethyl)phenyl)carbamate]: the “AC1.4 Human” value came to 2.83 µM and the EC50 worked out at 11.9 µM.

In the case of `O=C(Nc1ccc(CN2CCC[C@@H]2c2cccnc2)cc1)OCc1ccncc1` [Compound 3, pyridin-4-ylmethylN-(4-{[(2R)-2-(pyridin-3-yl)pyrrolidin-1-yl]methyl}phenyl)carbamate], the “AC1.4 Human” value came out at 0.05 µM and the EC50 is 0.31 µM.

With `CN1CCN(Cc2ccc(NC(=O)OCc3ccc(Cl)cc3)cc2)CC1=O` [Compound 284, (4-chlorophenyl)methyl N-{4-[(4-methyl-3-oxopiperazin-1-yl)methyl]phenyl}carbamate], the “AC1.4 Human” value is 3.72 µM and the EC50 came to 19.2 µM.

With `O=C(Nc1ccc(Cc2ccncc2)cc1)OCc1cnsc1` [Compound 299, isothiazol-4-ylmethyl (4-(pyridin-4-ylmethyl)phenyl)carbamate], the “AC1.4 Human” value came to 4.67 µM and the EC50 amounted to 11.6 µM.

Regarding `O=C(Nc1ccc(CN2CCN(c3cnccn3)CC2)cc1)OCc1ccc(Cl)cc1` [Compound 24, (4-chlorophenyl)methyl N-(4-{[4-(pyrazin-2-yl)piperazin-1-yl]methyl}phenyl)carbamate], the “AC1.4 Human” value was 0.34 µM and the concentration for a half-maximal effect (EC50) came out at 1.88 µM.

Values taken from patent US20240279215A1 (Cytokinetics, Incorporated, priority 2022, published 2024).
